Measurements reported in patent publication US8680113B2, “BMI-1 protein expression modulators” (PTC Therapeutics, Inc., priority 2008, dated 2014).

These compounds were tested on Bmi-1 (assay: Sandwich ELISA Assay (Bmi-1 ELISA in HT-1080 cells)).
Assay type: cell-based, human
Procedure, shortened: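 Lysate Bmi-1 was quantified against a recombinant GST-Bmi-1 standard (0-8000 pg/mL) by sandwich ELISA read at OD450 with OD570 reference. The ELISA used mouse monoclonal capture, rabbit anti-Bmi-1, HRP anti-rabbit IgG and TMB. Before lysis, HT-1080 cells seeded at 8000/well were exposed to compounds for 40-48 h at 37°C with 0.5% final DMSO.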

Compound | IC50 [nM]
FC(F)(F)c1nc2ncccn2c1-c1csc(Nc2ccc3c(c2)OCO3)n1 [Cpd 154, N-(1,3-benzodioxol-5-yl)-4-[2-(trifluoromethyl)imidazo[1,2-a]pyrimidin-3-yl]-1,3-thiazol-2-amine] | < 500
CCc1nc2ncccn2c1-c1csc(Nc2ccc(N(C)C)cc2)n1 [Cpd 145, N′-[4-(2-ethylimidazo[1,2-a]pyrimidin-3-yl)-1,3-thiazol-2-yl]-N,N-dimethylbenzene-1,4-diamine] | < 500
Cc1nc2ccc(Br)cn2c1-c1csc(Nc2ccc3c(c2)OCO3)n1 [Cpd 82, N-(1,3-benzodioxol-5-yl)-4-(6-bromo-2-methylimidazo[1,2-a]pyridin-3-yl)-1,3-thiazol-2-amine] | < 500
COc1ccc(Nc2nccc(-c3cnc4ccccn34)n2)cc1 [Cpd 245, 4-(imidazo[1,2-a]pyridin-3-yl)-N-(4-methoxyphenyl)pyrimidin-2-amine] | < 500
COc1ccc(Nc2nc(-c3c(C)nc4ccccn34)cs2)cc1F [Cpd 51, N-(3-fluoro-4-methoxyphenyl)-4-(2-methylimidazo[1,2-a]pyridin-3-yl)-1,3-thiazol-2-amine] | < 500
CCCc1nc2ccccn2c1-c1csc(Nc2ccc(I)cc2)n1 [Cpd 174, N-(4-iodophenyl)-4-(2-propylimidazo[1,2-a]pyridin-3-yl)-1,3-thiazol-2-amine] | < 500
COc1ccccc1Nc1nc(-c2c(C)nc3c(Br)cccn23)cs1 [Cpd 234, 4-(8-bromo-2-methylimidazo[1,2-a]pyridin-3-yl)-N-(2-methoxyphenyl)-1,3-thiazol-2-amine] | < 500
Cc1nc2ncccn2c1-c1ccnc(Nc2ccc(Br)cc2)n1 [Cpd 126, N-(4-bromophenyl)-4-(2-methylimidazo[1,2-a]pyrimidin-3-yl)pyrimidin-2-amine] | < 500
Clc1ccc2ncc(-c3csc(Nc4c(Br)cc(Br)cc4Br)n3)n2c1 [Cpd 135, 4-(6-chloroimidazo[1,2-a]pyridin-3-yl)-N-(2,4,6-tribromophenyl)-1,3-thiazol-2-amine] | < 500
Cc1nc2ccccn2c1-c1ccnc(Nc2ccc(Cl)cc2)n1 [Cpd 113, N-(4-chlorophenyl)-4-(2-methylimidazo[1,2-a]pyridin-3-yl)pyrimidin-2-amine] | < 500
CCN(CC)c1ccc(Nc2nc(-c3c(C)nc4ccccn34)cs2)cc1 [Cpd 193, N,N-diethyl-N′-[4-(2-methylimidazo[1,2-a]pyridin-3-yl)-1,3-thiazol-2-yl]benzene-1,4-diamine] | < 500
CN(C)c1cccc(Nc2nccc(-c3cnc4ncccn34)n2)c1 [Cpd 264, N′-[4-(imidazo[1,2-a]pyrimidin-3-yl)pyrimidin-2-yl]-N,N-dimethylbenzene-1,3-diamine] | < 500
CC(=O)c1ccc(Nc2nc(-c3c(C)nc4ncccn34)cs2)cc1 [Cpd 34, 1-(4-{[4-(2-methylimidazo[1,2-a]pyrimidin-3-yl)-1,3-thiazol-2-yl]amino}phenyl)ethanone] | < 500
CCCc1nc2ncccn2c1-c1csc(Nc2ccc(N(C)C)cc2)n1 [Cpd 183, N,N-dimethyl-N′-[4-(2-propylimidazo[1,2-a]pyrimidin-3-yl)-1,3-thiazol-2-yl]benzene-1,4-diamine] | < 500
Fc1ccc(Nc2nccc(-c3cnc4ccccn34)n2)cc1 [Cpd 248, N-(4-fluorophenyl)-4-(imidazo[1,2-a]pyridin-3-yl)pyrimidin-2-amine] | < 500
COc1cc(Br)c(Nc2nccc(-c3cnc4ccccn34)n2)c(Br)c1 [Cpd 249, N-(2,6-dibromo-4-methoxyphenyl)-4-(imidazo[1,2-a]pyridin-3-yl)pyrimidin-2-amine] | < 500
CCCc1nc2ccccn2c1-c1csc(Nc2ccc(OCC)cc2)n1 [Cpd 173, N-(4-ethoxyphenyl)-4-(2-propylimidazo[1,2-a]pyridin-3-yl)-1,3-thiazol-2-amine] | < 500
CCc1nc2ncccn2c1-c1csc(Nc2ccc(OC)c(F)c2)n1 [Cpd 152, 4-(2-ethylimidazo[1,2-a]pyrimidin-3-yl)-N-(3-fluoro-4-methoxyphenyl)-1,3-thiazol-2-amine] | < 500
CN(C)c1ccc(Nc2nccc(-c3cnc4ncccn34)n2)cc1 [Cpd 265, N′-[4-(imidazo[1,2-a]pyrimidin-3-yl)pyrimidin-2-yl]-N,N-dimethylbenzene-1,4-diamine] | 500 to 1000
Cc1nc2ccc(Cl)cn2c1-c1csc(Nc2c(Cl)cccc2Cl)n1 [Cpd 98, 4-(6-chloro-2-methylimidazo[1,2-a]pyridin-3-yl)-N-(2,6-dichlorophenyl)-1,3-thiazol-2-amine] | < 500
Cc1cc(Br)c(Nc2nc(-c3c(C)nc4ncccn34)cs2)c(Br)c1 [Cpd 21, N-(2,6-dibromo-4-methylphenyl)-4-(2-methylimidazo[1,2-a]pyrimidin-3-yl)thiazol-2-amine] | < 500
CCCc1nc2ncccn2c1-c1csc(Nc2ccc(OC)cc2)n1 [Cpd 186, N-(4-methoxyphenyl)-4-(2-propylimidazo[1,2-a]pyrimidin-3-yl)-1,3-thiazol-2-amine] | < 500
COc1ccc(Nc2nc(-c3c(C)nc4ncccn34)cs2)cc1F [Cpd 45, N-(3-fluoro-4-methoxyphenyl)-4-(2-methylimidazo[1,2-a]pyrimidin-3-yl)-1,3-thiazol-2-amine] | < 500
CN(C)c1ccc(Nc2nccc(-c3cnc4ccccn34)n2)cc1 [Cpd 254, N′-[4-(imidazo[1,2-a]pyridin-3-yl)pyrimidin-2-yl]-N,N-dimethylbenzene-1,4-diamine] | < 500
COc1ccc(Nc2nc(-c3c(C)nc4c(Br)cccn34)cs2)cc1 [Cpd 228, 4-(8-bromo-2-methylimidazo[1,2-a]pyridin-3-yl)-N-(4-methoxyphenyl)-1,3-thiazol-2-amine] | < 500
Cc1ccc(Nc2nc(-c3c(C)nc4ncccn34)cs2)cc1 [Cpd 85, 4-(2-methylimidazo[1,2-a]pyrimidin-3-yl)-N-(4-methylphenyl)-1,3-thiazol-2-amine] | < 500
Brc1ccc(Nc2nccc(-c3cnc4ncccn34)n2)cc1 [Cpd 270, N-(4-bromophenyl)-4-(imidazo[1,2-a]pyrimidin-3-yl)pyrimidin-2-amine] | < 500
CCOc1ccc(Nc2nccc(-c3c(C)nc4ncccn34)n2)cc1 [Cpd 116, N-(4-ethoxyphenyl)-4-(2-methylimidazo[1,2-a]pyrimidin-3-yl)pyrimidin-2-amine] | < 500
CCc1nc2ncccn2c1-c1csc(Nc2ccc(Br)cc2)n1 [Cpd 148, N-(4-bromophenyl)-4-(2-ethylimidazo[1,2-a]pyrimidin-3-yl)-1,3-thiazol-2-amine] | < 500

Other lines, results leading:

IC50 [nM] | Compound
< 500 | COc1ccc(Nc2nc(-c3c(C)nc4cc(C)ccn34)cs2)cc1 [Cpd 17, 4-(2,7-dimethylimidazo[1,2-a]pyridin-3-yl)-N-(4-methoxyphenyl)thiazol-2-amine]
< 500 | Cc1nc2ccc(Cl)cn2c1-c1csc(Nc2cccc(Cl)c2)n1 [Cpd 213, 4-(6-chloro-2-methylimidazo[1,2-a]pyridin-3-yl)-N-(3-chlorophenyl)-1,3-thiazol-2-amine]
< 500 | Cc1nc2ccccn2c1-c1csc(Nc2ccc(Br)cc2)n1 [Cpd 197, N-(4-bromophenyl)-4-(2-methylimidazo[1,2-a]pyridin-3-yl)-1,3-thiazol-2-amine]
< 500 | Cc1ccc2nc(C)c(-c3csc(Nc4ccc(Cl)cc4)n3)n2c1 [Cpd 78, N-(4-chlorophenyl)-4-(2,6-dimethylimidazo[1,2-a]pyridin-3-yl)-1,3-thiazol-2-amine]
< 500 | Cc1nc2ccc(F)cn2c1-c1csc(Nc2ccc(C(C)(C)C)cc2)n1 [Cpd 164, N-(4-tert-butylphenyl)-4-(6-fluoro-2-methylimidazo[1,2-a]pyridin-3-yl)-1,3-thiazol-2-amine]
< 500 | Cc1ccc2nc(C)c(-c3csc(Nc4ccc(N(C)C)cc4)n3)n2c1 [Cpd 70, N′-[4-(2,6-dimethylimidazo[1,2-a]pyridin-3-yl)-1,3-thiazol-2-yl]-N,N-dimethylbenzene-1,4-diamine]
< 500 | Cc1nc2ccc(F)cn2c1-c1csc(Nc2ccc(Br)cc2)n1 [Cpd 162, N-(4-bromophenyl)-4-(6-fluoro-2-methylimidazo[1,2-a]pyridin-3-yl)-1,3-thiazol-2-amine]
< 500 | Cc1nc2ccc(Cl)cn2c1-c1csc(Nc2ccc(O)cc2)n1 [Cpd 92, 4-{[4-(6-chloro-2-methylimidazo[1,2-a]pyridin-3-yl)-1,3-thiazol-2-yl]amino}phenol]
< 500 | CCOc1ccc(Nc2nc(-c3c(C)nc4ccccn34)cs2)cc1 [Cpd 204, N-(4-ethoxyphenyl)-4-(2-methylimidazo[1,2-a]pyridin-3-yl)-1,3-thiazol-2-amine]
< 500 | Cc1nc2ccc(Cl)cn2c1-c1csc(Nc2cccc(F)c2)n1 [Cpd 215, 4-(6-chloro-2-methylimidazo[1,2-a]pyridin-3-yl)-N-(3-fluorophenyl)-1,3-thiazol-2-amine]
< 500 | COCCOc1ccc(Nc2nc(-c3c(C)nc4ccc(Cl)cn34)cs2)cc1 [Cpd 93, 4-(6-chloro-2-methylimidazo[1,2-a]pyridin-3-yl)-N-[4-(2-methoxyethoxy)phenyl]-1,3-thiazol-2-amine]
< 500 | Cc1nc2ccc(Cl)cn2c1-c1csc(Nc2ccc(Cl)c(Cl)c2)n1 [Cpd 111, 4-(6-chloro-2-methylimidazo[1,2-a]pyridin-3-yl)-N-(3,4-dichlorophenyl)-1,3-thiazol-2-amine]
< 500 | CC(=O)Nc1ccc(Nc2nc(-c3c(C)nc4ccc(Cl)cn34)cs2)cc1 [Cpd 97, N-(4-{[4-(6-chloro-2-methylimidazo[1,2-a]pyridin-3-yl)-1,3-thiazol-2-yl]amino}phenyl)acetamide]
< 500 | Cc1nc2ccccn2c1-c1csc(Nc2ccc(I)cc2)n1 [Cpd 53, N-(4-iodophenyl)-4-(2-methylimidazo[1,2-a]pyridin-3-yl)-1,3-thiazol-2-amine]
